Experiments:
Type in all cases: biochemical
TTK = molecular target: T1, TTK (Homo sapiens, UniProt P33981); assay: Kinase profiling TTK; details: 100 micromolar inhibitor concentration, 100 is no change; for remaining activity at 100 µM: read-out: residual kinase activity, TTK
T1 sequence (P33981 1-857): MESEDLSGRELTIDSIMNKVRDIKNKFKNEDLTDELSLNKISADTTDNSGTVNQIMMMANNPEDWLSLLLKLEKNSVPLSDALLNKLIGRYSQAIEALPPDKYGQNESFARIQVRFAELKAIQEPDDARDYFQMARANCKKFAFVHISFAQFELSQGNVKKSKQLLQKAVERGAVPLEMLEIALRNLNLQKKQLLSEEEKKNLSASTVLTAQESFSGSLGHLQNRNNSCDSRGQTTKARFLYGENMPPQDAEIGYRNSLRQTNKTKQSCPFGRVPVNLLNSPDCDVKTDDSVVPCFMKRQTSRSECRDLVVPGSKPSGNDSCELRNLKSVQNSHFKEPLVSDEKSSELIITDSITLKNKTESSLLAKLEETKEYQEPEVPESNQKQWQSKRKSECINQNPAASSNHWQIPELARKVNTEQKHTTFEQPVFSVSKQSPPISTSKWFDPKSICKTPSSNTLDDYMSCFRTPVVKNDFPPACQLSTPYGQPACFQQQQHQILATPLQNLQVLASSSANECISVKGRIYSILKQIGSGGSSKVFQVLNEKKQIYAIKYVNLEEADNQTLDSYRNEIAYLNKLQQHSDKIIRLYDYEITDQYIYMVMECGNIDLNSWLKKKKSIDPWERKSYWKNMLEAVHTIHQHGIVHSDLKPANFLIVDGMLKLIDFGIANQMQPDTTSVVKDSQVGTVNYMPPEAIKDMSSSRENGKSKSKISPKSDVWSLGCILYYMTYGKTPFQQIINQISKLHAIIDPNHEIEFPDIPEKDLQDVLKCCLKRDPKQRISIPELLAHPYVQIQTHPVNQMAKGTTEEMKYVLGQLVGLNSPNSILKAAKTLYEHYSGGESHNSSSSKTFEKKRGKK
Text: (§1) Any value less that 25 is considered to be highly significant inhibition.

p38a MAPK = p38a MAPK (Homo sapiens, UniProt Q16539); assay: Kinase profiling p38a MAPK; details: 100 micromolar inhibitor concentration, 100 is no change; for remaining activity at 100 µM: read-out: residual kinase activity, p38a MAPK
Chain of p38a MAPK (Q16539 whole entry): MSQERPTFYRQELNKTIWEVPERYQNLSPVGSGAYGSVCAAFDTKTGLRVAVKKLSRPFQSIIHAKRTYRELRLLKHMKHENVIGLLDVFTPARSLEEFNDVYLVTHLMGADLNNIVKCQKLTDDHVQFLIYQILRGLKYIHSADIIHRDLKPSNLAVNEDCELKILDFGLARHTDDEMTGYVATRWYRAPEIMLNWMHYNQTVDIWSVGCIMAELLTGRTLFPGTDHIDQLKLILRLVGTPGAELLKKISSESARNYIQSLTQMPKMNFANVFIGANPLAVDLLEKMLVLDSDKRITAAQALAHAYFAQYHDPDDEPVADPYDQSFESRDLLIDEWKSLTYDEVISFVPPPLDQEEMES
Text: as §1

MKK1 = MKK1 (Homo sapiens, UniProt Q02750); assay: Kinase profiling MKK1; details: 100 micromolar inhibitor concentration, 100 is no change; for remaining activity at 100 µM: read-out: residual kinase activity, MKK1
Chain of MKK1 (Q02750 whole entry, species assumed): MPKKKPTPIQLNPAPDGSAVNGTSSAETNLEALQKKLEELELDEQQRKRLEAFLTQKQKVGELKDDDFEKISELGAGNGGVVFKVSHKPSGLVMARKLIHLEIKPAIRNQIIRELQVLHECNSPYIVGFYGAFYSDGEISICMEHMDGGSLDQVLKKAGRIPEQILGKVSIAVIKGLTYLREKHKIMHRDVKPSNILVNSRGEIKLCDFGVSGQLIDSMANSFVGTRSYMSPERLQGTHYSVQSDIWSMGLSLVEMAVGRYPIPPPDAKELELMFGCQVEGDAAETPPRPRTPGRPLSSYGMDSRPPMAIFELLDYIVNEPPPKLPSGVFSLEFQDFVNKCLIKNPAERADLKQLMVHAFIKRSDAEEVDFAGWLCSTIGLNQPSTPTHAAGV
Text: as §1

PKBb = PKBb (Homo sapiens, UniProt P31751); assay: Kinase profiling PKBb; details: for residual kinase activity, PKBb: 100 micromolar inhibitor concentration, 100 is no change; for remaining activity at 100 µM: read-out: residual kinase activity, PKBb
Chain of PKBb (P31751 whole entry): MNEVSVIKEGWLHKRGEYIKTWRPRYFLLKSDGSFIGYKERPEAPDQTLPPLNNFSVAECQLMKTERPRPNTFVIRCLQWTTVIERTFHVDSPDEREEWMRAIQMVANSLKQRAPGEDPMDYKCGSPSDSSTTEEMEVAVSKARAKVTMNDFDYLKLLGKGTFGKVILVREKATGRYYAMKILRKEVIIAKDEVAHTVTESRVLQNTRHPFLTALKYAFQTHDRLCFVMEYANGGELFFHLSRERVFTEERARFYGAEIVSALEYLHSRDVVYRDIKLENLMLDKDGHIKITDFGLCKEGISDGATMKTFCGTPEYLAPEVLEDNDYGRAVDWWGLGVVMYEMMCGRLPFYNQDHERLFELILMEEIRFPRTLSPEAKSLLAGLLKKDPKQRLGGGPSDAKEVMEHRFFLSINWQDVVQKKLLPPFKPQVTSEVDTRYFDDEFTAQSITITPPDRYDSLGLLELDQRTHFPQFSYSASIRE
Text: as §1

JNK1 = JNK1 (Homo sapiens, UniProt P45983); assay: Kinase profiling JNK1; details: 100 micromolar inhibitor concentration, 100 is no change; for remaining activity at 100 µM: read-out: residual kinase activity, JNK1
Chain of JNK1 (P45983 whole entry, species assumed): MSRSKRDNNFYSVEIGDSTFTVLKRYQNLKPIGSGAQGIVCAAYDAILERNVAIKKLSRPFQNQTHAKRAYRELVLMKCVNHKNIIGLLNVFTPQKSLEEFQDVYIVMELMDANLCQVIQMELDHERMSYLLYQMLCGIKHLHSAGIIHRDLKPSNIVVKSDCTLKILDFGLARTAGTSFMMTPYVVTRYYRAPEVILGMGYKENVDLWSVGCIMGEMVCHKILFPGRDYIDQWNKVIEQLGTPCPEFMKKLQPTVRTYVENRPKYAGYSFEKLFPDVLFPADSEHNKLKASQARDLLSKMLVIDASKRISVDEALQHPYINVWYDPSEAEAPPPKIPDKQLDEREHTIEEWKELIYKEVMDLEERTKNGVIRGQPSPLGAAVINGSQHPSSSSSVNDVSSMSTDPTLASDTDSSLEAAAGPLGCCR
Text: as §1

RIPK2 = RIPK2 (Homo sapiens, UniProt O43353); assay: Kinase profiling RIPK2; details: 100 micromolar inhibitor concentration, 100 is no change; for remaining activity at 100 µM: read-out: residual kinase activity, RIPK2
Text: as §1

SGK1 = molecular target: T2, SGK1 (Homo sapiens, UniProt O00141); assay: Kinase profiling SGK1; details: 100 micromolar inhibitor concentration, 100 is no change; for remaining activity at 100 µM: read-out: residual kinase activity, SGK1
T2 sequence (O00141 1-431): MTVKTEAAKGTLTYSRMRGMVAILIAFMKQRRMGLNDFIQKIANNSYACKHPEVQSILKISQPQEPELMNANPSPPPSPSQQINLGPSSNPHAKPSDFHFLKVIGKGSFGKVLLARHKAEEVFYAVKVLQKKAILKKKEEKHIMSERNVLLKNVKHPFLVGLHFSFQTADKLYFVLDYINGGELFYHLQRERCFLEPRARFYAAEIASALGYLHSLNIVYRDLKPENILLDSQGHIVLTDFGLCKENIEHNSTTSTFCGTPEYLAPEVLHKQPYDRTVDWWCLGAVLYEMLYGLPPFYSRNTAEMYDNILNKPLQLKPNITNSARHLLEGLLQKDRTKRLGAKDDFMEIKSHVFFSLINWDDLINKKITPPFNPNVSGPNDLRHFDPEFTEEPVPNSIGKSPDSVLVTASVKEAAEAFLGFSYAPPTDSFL
Text: as §1

IGF-1R = IGF-1R (Homo sapiens, UniProt P08069); assay: Kinase profiling IGF-1R; details: 100 micromolar inhibitor concentration, 100 is no change; for remaining activity at 100 µM: read-out: residual kinase activity, IGF-1R
Text: as §1

SmMLCK = SmMLCK (Homo sapiens, UniProt Q15746); assay: Kinase profiling SmMLCK; details: 100 micromolar inhibitor concentration, 100 is no change; for remaining activity at 100 µM: read-out: residual kinase activity, SmMLCK
Chain of SmMLCK (Q15746 923-1914): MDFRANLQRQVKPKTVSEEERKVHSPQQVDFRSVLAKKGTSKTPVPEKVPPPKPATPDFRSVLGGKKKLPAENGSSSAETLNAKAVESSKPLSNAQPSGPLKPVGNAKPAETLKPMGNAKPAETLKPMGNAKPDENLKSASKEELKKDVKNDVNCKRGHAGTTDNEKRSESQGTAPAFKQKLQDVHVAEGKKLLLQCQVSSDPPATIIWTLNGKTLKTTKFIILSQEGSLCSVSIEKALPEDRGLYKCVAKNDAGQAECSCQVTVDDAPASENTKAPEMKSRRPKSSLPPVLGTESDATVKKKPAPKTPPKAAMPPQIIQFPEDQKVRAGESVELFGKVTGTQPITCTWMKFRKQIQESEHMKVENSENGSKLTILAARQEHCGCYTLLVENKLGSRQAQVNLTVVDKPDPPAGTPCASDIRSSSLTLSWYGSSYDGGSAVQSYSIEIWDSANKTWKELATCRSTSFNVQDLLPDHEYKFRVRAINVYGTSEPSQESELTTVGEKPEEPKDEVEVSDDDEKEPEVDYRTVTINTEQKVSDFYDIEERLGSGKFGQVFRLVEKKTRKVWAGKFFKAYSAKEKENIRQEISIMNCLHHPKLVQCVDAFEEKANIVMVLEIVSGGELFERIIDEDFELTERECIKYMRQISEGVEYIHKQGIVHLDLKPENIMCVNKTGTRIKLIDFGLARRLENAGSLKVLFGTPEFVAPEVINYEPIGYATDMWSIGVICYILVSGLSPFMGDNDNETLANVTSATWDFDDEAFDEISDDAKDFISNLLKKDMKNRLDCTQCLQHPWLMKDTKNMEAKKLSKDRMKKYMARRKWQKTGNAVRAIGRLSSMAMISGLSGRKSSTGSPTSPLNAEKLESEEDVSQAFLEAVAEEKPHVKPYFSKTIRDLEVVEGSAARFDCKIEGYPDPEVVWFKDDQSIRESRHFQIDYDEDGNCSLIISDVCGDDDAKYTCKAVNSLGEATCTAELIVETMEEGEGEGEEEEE

JAK2 = JAK2 (Homo sapiens, UniProt O60674); assay: Kinase profiling JAK2; details: 100 micromolar inhibitor concentration, 100 is no change; for remaining activity at 100 µM: read-out: residual kinase activity, JAK2
Chain of JAK2 (O60674 whole entry, species assumed): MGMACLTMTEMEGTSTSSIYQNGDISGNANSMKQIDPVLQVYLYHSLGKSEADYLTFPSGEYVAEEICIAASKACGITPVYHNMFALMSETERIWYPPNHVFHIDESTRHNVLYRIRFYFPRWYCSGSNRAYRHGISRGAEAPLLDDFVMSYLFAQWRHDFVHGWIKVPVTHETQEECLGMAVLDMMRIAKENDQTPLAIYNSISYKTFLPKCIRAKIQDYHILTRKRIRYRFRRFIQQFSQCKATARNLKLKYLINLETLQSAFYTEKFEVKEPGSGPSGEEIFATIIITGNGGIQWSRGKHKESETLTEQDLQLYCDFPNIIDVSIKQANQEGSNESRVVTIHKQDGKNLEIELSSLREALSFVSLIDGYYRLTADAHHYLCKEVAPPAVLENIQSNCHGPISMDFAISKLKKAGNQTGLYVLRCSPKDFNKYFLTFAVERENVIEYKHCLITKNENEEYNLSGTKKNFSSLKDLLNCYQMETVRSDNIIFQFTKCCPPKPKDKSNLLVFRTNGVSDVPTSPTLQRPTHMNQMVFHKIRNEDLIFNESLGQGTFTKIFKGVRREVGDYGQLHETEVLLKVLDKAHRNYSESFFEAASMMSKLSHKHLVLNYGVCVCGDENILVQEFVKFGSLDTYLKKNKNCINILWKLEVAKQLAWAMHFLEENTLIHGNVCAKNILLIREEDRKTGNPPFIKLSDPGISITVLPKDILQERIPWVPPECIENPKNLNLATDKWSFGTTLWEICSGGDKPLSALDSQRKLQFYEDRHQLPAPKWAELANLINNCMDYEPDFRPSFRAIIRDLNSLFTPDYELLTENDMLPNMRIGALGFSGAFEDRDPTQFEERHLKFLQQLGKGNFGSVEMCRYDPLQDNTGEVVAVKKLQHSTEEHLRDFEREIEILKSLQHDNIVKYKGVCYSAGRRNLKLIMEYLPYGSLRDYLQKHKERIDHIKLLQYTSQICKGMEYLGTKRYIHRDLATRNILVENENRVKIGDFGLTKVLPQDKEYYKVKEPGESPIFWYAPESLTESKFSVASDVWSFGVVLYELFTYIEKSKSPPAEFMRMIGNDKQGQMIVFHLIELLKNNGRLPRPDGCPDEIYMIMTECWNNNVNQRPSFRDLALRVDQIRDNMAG
Text: as §1

MST2 = molecular target: T3, MST2 (Homo sapiens, UniProt Q13188); assay: Kinase profiling MST2; details: 100 micromolar inhibitor concentration, 100 is no change; for remaining activity at 100 µM: read-out: residual kinase activity, MST2
T3 sequence (Q13188 1-491): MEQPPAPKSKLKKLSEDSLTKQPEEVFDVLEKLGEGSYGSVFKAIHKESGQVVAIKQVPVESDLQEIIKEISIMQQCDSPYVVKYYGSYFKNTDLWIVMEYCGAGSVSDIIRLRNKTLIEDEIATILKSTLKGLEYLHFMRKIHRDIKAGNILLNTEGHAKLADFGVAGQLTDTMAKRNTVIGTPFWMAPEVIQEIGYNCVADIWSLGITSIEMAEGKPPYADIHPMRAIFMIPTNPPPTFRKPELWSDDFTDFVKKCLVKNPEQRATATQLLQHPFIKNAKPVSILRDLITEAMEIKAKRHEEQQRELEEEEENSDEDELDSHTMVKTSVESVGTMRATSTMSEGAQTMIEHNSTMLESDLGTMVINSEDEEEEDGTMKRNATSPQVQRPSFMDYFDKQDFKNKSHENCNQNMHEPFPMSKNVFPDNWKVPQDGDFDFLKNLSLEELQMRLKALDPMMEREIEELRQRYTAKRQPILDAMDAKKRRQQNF
Text: as §1

RSK2 = RSK2 (Homo sapiens, UniProt P51812); assay: Kinase profiling RSK2; details: 100 micromolar inhibitor concentration, 100 is no change; for remaining activity at 100 µM: read-out: residual kinase activity, RSK2
Text: as §1

JNK3 = JNK3 (Homo sapiens, UniProt P53779); assay: Kinase profiling JNK3; details: 100 micromolar inhibitor concentration, 100 is no change; for remaining activity at 100 µM: read-out: residual kinase activity, JNK3
Chain of JNK3 (P53779 whole entry, species assumed): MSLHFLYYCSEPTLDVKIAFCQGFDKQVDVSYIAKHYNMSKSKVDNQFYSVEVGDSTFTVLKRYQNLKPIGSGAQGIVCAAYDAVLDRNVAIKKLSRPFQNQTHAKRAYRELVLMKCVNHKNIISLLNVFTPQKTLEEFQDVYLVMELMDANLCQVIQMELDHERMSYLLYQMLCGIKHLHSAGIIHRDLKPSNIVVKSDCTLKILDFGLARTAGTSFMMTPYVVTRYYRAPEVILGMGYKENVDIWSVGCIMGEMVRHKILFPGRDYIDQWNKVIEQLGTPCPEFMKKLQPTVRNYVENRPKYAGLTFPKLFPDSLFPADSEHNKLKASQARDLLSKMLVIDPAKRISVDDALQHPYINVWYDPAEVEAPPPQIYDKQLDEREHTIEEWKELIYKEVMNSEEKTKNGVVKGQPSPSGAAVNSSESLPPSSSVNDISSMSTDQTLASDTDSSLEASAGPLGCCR
Text: as §1

p38d MAPK = molecular target: T4, p38d MAPK (Homo sapiens, UniProt O15264); assay: Kinase profiling p38d MAPK; details: 100 micromolar inhibitor concentration, 100 is no change; for remaining activity at 100 µM: read-out: residual kinase activity, p38d MAPK
T4 sequence (O15264 1-365): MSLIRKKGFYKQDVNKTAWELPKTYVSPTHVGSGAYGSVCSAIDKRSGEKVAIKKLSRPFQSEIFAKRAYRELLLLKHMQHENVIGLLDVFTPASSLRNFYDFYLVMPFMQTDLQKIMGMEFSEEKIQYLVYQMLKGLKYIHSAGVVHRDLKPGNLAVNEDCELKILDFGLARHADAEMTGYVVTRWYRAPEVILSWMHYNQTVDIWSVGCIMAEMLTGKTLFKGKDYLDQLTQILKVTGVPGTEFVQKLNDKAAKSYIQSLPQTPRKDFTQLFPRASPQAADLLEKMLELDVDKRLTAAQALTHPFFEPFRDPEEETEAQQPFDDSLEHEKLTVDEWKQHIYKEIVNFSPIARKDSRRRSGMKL
Text: as §1

STK33 = STK33 (Homo sapiens, UniProt Q9BYT3); assay: Kinase profiling STK33; details: 100 micromolar inhibitor concentration, 100 is no change; for remaining activity at 100 µM: read-out: residual kinase activity, STK33
Chain of STK33 (Q9BYT3 whole entry, species assumed): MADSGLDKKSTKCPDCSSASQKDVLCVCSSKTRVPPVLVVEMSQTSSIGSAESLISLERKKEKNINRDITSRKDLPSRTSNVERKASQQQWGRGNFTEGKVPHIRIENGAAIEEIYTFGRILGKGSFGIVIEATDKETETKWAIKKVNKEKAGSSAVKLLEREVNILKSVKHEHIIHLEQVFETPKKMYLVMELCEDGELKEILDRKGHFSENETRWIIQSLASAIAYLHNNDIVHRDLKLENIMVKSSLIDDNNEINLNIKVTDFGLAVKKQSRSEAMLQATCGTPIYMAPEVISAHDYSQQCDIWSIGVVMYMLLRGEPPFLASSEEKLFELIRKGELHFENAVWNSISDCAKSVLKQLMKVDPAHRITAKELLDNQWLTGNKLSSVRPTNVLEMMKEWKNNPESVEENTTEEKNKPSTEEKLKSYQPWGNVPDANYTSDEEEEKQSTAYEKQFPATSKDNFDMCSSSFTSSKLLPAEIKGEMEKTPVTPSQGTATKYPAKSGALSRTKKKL
Text: as §1

Compound	residual kinase activity, TTK (TTK)	residual kinase activity, p38a MAPK (p38a MAPK)	residual kinase activity, MKK1 (MKK1)	residual kinase activity, PKBb (PKBb)	residual kinase activity, JNK1 (JNK1)	residual kinase activity, RIPK2 (RIPK2)	residual kinase activity, SGK1 (SGK1)	residual kinase activity, IGF-1R (IGF-1R)	residual kinase activity, SmMLCK (SmMLCK)	residual kinase activity, JAK2 (JAK2)	residual kinase activity, MST2 (MST2)	residual kinase activity, RSK2 (RSK2)	residual kinase activity, JNK3 (JNK3)	residual kinase activity, p38d MAPK (p38d MAPK)	residual kinase activity, STK33 (STK33)	further results
O=C(Nc1nc2cc(O)ccc2s1)c1ccccn1 [Compound 03-13]	53	96	107	60	93	27	74	84	37	98	60	72	67	99	71	–
COc1ccc2sc(NC(C)=O)nc2c1 [Compound 03-21]	–	–	–	–	–	–	–	–	–	–	–	–	–	–	–	remaining activity at 100 µM (TTK): 67%; remaining activity at 100 µM (p38a MAPK): 96%; remaining activity at 100 µM (MKK1): 64%; remaining activity at 100 µM (PKBb): 92%; remaining activity at 100 µM (JNK1): 97%; remaining activity at 100 µM (RIPK2): 29%; remaining activity at 100 µM (SGK1): 82%; remaining activity at 100 µM (IGF-1R): 78%; remaining activity at 100 µM (SmMLCK): 50%; remaining activity at 100 µM (JAK2): 88%; remaining activity at 100 µM (MST2): 91%; remaining activity at 100 µM (RSK2): 94%; remaining activity at 100 µM (JNK3): 80%; remaining activity at 100 µM (p38d MAPK): 75%; remaining activity at 100 µM (STK33): 81%
CC(=O)Nc1nc2ccccc2s1 [Compound 03-32]	71	91	81	112	97	70	92	74	81	66	88	105	66	80	104	–
O=C(Nc1nc2cc(O)ccc2s1)c1cccnc1 [Compound 03-33]	45	105	89	93	111	20	86	50	52	70	73	85	76	103	70	–
O=C(Nc1nc2ccc(O)cc2s1)c1ccccc1 [Compound 03-60]	19	74	49	86	88	12	41	18	15	36	40	34	48	75	38	–
CC(=O)Nc1nc2cc(C(F)(F)F)ccc2s1 [Compound 03-73]	–	–	–	–	–	–	–	–	–	–	–	–	–	–	–	remaining activity at 100 µM (TTK): 86%; remaining activity at 100 µM (p38a MAPK): 92%; remaining activity at 100 µM (MKK1): 96%; remaining activity at 100 µM (PKBb): 104%; remaining activity at 100 µM (JNK1): 120%; remaining activity at 100 µM (RIPK2): 48%; remaining activity at 100 µM (SGK1): 77%; remaining activity at 100 µM (IGF-1R): 77%; remaining activity at 100 µM (SmMLCK): 71%; remaining activity at 100 µM (JAK2): 96%; remaining activity at 100 µM (MST2): 80%; remaining activity at 100 µM (RSK2): 83%; remaining activity at 100 µM (JNK3): 83%; remaining activity at 100 µM (p38d MAPK): 52%; remaining activity at 100 µM (STK33): 86%
CC(=O)Nc1nc2cc(C)ccc2s1 [Compound 03-76]	49	92	73	91	97	60	65	75	62	51	75	96	76	85	80	–
